Results reported in PubChem BioAssay (NCI).
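Dose response: 5 concentrations. Exposure: 48 h. Format: 96-well plates. Endpoint: linear interpolation; highest concentration if not reached. GI50 = concentration required for 50% inhibition of growth. Definition used: TGI = concentration required for complete inhibition of growth.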

Legend:
Experiment in all cases: inhibition of tumour cell growth, NCI panel, 48 h
SK-MEL-2 melanoma = system: SK-MEL-2 melanoma
LOX IMVI melanoma = system: LOX IMVI melanoma
OVCAR-3 ovarian = system: OVCAR-3 ovarian
UO-31 renal = system: UO-31 renal
OVCAR-8 ovarian = system: OVCAR-8 ovarian
RPMI-8226 leukemia = system: RPMI-8226 leukemia
CCRF-CEM leukemia = system: CCRF-CEM leukemia
SF-295 CNS = system: SF-295 CNS
SK-MEL-5 melanoma = system: SK-MEL-5 melanoma
A549 NSCLC = system: A549 NSCLC
MOLT-4 leukemia = system: MOLT-4 leukemia
HCT-116 colon = system: HCT-116 colon
OVCAR-5 ovarian = system: OVCAR-5 ovarian
PC-3 prostate = system: PC-3 prostate
SF-268 CNS = system: SF-268 CNS
HL-60(TB) leukemia = system: HL-60(TB) leukemia
HCC-2998 colon = system: HCC-2998 colon
NCI-H460 lung = system: NCI-H460 lung
HCT-15 colon = system: HCT-15 colon
CAKI-1 renal = system: CAKI-1 renal
UACC-257 melanoma = system: UACC-257 melanoma
MALME-3M melanoma = system: MALME-3M melanoma
IGROV1 ovarian = system: IGROV1 ovarian
M14 melanoma = system: M14 melanoma
SN12C renal = system: SN12C renal
ACHN renal = system: ACHN renal
T-47D breast = system: T-47D breast
MDA-MB-231 breast = system: MDA-MB-231 breast
K-562 leukemia = system: K-562 leukemia
DU-145 prostate = system: DU-145 prostate
786-0 renal = system: 786-0 renal
SK-MEL-28 melanoma = system: SK-MEL-28 melanoma
HOP-62 NSCLC = system: HOP-62 NSCLC
OVCAR-4 ovarian = system: OVCAR-4 ovarian
TK-10 renal = system: TK-10 renal
NCI/ADR-RES ovarian = system: NCI/ADR-RES ovarian
NCI-H23 lung = system: NCI-H23 lung
MCF7 breast = system: MCF7 breast
SNB-19 CNS = system: SNB-19 CNS
HT29 colon = system: HT29 colon
A498 renal = system: A498 renal
BT-549 breast = system: BT-549 breast
SK-OV-3 ovarian = system: SK-OV-3 ovarian
KM12 colon = system: KM12 colon
U251 CNS = system: U251 CNS
NCI-H522 lung = system: NCI-H522 lung
SNB-75 CNS = system: SNB-75 CNS
COLO 205 colon = system: COLO 205 colon
SF-539 CNS = system: SF-539 CNS
SR leukemia = system: SR leukemia
UACC-62 melanoma = system: UACC-62 melanoma
SW-620 colon = system: SW-620 colon
RXF 393 renal = system: RXF 393 renal
HS 578T breast = system: HS 578T breast
NCI-H226 lung = system: NCI-H226 lung

COc1ccc(-c2cc3nccn3c(Nc3ncccc3C(N)=O)n2)cc1OC
GI50 (SK-MEL-2 melanoma): 0.824 µM | TGI (SK-MEL-2 melanoma): > 100 µM | GI50 (LOX IMVI melanoma): 0.807 µM | TGI (LOX IMVI melanoma): > 100 µM | GI50 (OVCAR-3 ovarian): > 47 µM | TGI (OVCAR-3 ovarian): > 100 µM | GI50 (UO-31 renal): 0.758 µM | TGI (UO-31 renal): 42.1 µM | GI50 (OVCAR-8 ovarian): 0.955 µM | TGI (OVCAR-8 ovarian): > 100 µM | GI50 (RPMI-8226 leukemia): 2.75 µM | TGI (RPMI-8226 leukemia): > 100 µM | GI50 (CCRF-CEM leukemia): 0.827 µM | TGI (CCRF-CEM leukemia): > 100 µM | GI50 (SF-295 CNS): > 100 µM | TGI (SF-295 CNS): > 100 µM | GI50 (SK-MEL-5 melanoma): 4.87 µM | TGI (SK-MEL-5 melanoma): > 100 µM | GI50 (A549 NSCLC): 3 µM | TGI (A549 NSCLC): > 100 µM | GI50 (MOLT-4 leukemia): 4.14 µM | TGI (MOLT-4 leukemia): > 100 µM | GI50 (HCT-116 colon): 0.516 µM | TGI (HCT-116 colon): > 47.4 µM | GI50 (OVCAR-5 ovarian): > 100 µM | TGI (OVCAR-5 ovarian): > 100 µM | GI50 (PC-3 prostate): > 100 µM | TGI (PC-3 prostate): > 100 µM | GI50 (SF-268 CNS): 3.65 µM | TGI (SF-268 CNS): > 100 µM | GI50 (HL-60(TB) leukemia): 2.13 µM | TGI (HL-60(TB) leukemia): 24.2 µM | GI50 (HCC-2998 colon): > 100 µM | TGI (HCC-2998 colon): > 100 µM | GI50 (NCI-H460 lung): 2.19 µM | TGI (NCI-H460 lung): > 100 µM | GI50 (HCT-15 colon): 0.659 µM | TGI (HCT-15 colon): > 100 µM | GI50 (CAKI-1 renal): 0.274 µM | TGI (CAKI-1 renal): > 100 µM | GI50 (UACC-257 melanoma): > 100 µM | TGI (UACC-257 melanoma): > 100 µM | GI50 (MALME-3M melanoma): > 100 µM | TGI (MALME-3M melanoma): > 100 µM | GI50 (IGROV1 ovarian): 0.472 µM | TGI (IGROV1 ovarian): 6.19 µM | GI50 (M14 melanoma): > 65.7 µM | TGI (M14 melanoma): > 100 µM | GI50 (SN12C renal): 1.05 µM | TGI (SN12C renal): > 100 µM | GI50 (ACHN renal): 0.445 µM | TGI (ACHN renal): > 100 µM | GI50 (T-47D breast): > 100 µM | TGI (T-47D breast): > 100 µM | GI50 (MDA-MB-231 breast): > 100 µM | TGI (MDA-MB-231 breast): > 100 µM | GI50 (K-562 leukemia): 4.59 µM | TGI (K-562 leukemia): > 100 µM | GI50 (DU-145 prostate): 2 µM | TGI (DU-145 prostate): > 100 µM | GI50 (786-0 renal): 2.42 µM | TGI (786-0 renal): > 100 µM | GI50 (SK-MEL-28 melanoma): > 100 µM | TGI (SK-MEL-28 melanoma): > 100 µM | GI50 (HOP-62 NSCLC): 3.18 µM | TGI (HOP-62 NSCLC): > 100 µM | GI50 (OVCAR-4 ovarian): > 100 µM | TGI (OVCAR-4 ovarian): > 100 µM | GI50 (TK-10 renal): 0.391 µM | TGI (TK-10 renal): > 29.8 µM | GI50 (NCI/ADR-RES ovarian): > 26.6 µM | TGI (NCI/ADR-RES ovarian): > 100 µM | GI50 (NCI-H23 lung): > 39.2 µM | TGI (NCI-H23 lung): > 100 µM | GI50 (MCF7 breast): 1.87 µM | TGI (MCF7 breast): > 100 µM | GI50 (SNB-19 CNS): > 100 µM | TGI (SNB-19 CNS): > 100 µM | GI50 (HT29 colon): 1.19 µM | TGI (HT29 colon): > 100 µM | GI50 (A498 renal): 0.456 µM | TGI (A498 renal): > 100 µM | GI50 (BT-549 breast): 0.886 µM | TGI (BT-549 breast): > 100 µM | GI50 (SK-OV-3 ovarian): > 100 µM | TGI (SK-OV-3 ovarian): > 100 µM | GI50 (KM12 colon): 2.62 µM | TGI (KM12 colon): 27.3 µM | GI50 (U251 CNS): > 100 µM | TGI (U251 CNS): > 100 µM | GI50 (NCI-H522 lung): 1.18 µM | TGI (NCI-H522 lung): > 100 µM | GI50 (SNB-75 CNS): 1.04 µM | TGI (SNB-75 CNS): > 100 µM | GI50 (COLO 205 colon): 1.21 µM | TGI (COLO 205 colon): > 100 µM | GI50 (SF-539 CNS): 5.86 µM | TGI (SF-539 CNS): > 100 µM | GI50 (SR leukemia): 0.275 µM | TGI (SR leukemia): 21.4 µM | GI50 (UACC-62 melanoma): 0.742 µM | TGI (UACC-62 melanoma): > 100 µM | GI50 (SW-620 colon): 2.34 µM | TGI (SW-620 colon): > 100 µM | GI50 (RXF 393 renal): 0.613 µM | TGI (RXF 393 renal): 18.4 µM | GI50 (HS 578T breast): > 31.8 µM | TGI (HS 578T breast): > 100 µM | GI50 (NCI-H226 lung): > 100 µM | TGI (NCI-H226 lung): > 100 µM

COC12C=CC(CC1)C(C)(C)C2O (stereo unspecified)
TGI (SNB-75 CNS): > 100 µM
